{"source": "patent EP1285920A1", "about": "“C10 Ester sustituted taxanes as antitumor agents” (Florida State University Research Foundation, Inc., priority 2001, dated 2003)", "key": {"HCT116": {"test_system": "HCT116", "test": "In Vitro cytotoxicity measured by the cell colony formation assay", "format": "cell-based, human", "conditions": "Homo sapiens, HCT-116; read-out: IN VITRO ID 50 HCT116", "outline": "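Four hundred cells per dish in McCoy's 5a medium with 10% FBS were allowed to attach for 5 h at 37 °C. They were then exposed to compound for 72 h at 37 °C, added as a 10× stock made fresh in medium. After HBSS rinsing and refeeding, colonies were counted after 7 days.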"}, "DU145 prostate carcinoma": {"test_system": "DU145 prostate carcinoma", "from_the_text": "Dosing was initiated on Day 1. […] Treatment groups are detailed in Table 5."}, "A375 melanoma": {"test_system": "A375 melanoma", "procedure": "Dosing was initiated on Day 1. […] Taxotere was given i.v. on a qd x 1 schedule at a dose of 70 mg/kg. […] The study was terminated on Day 60. Treatment groups are detailed in Table 9."}, "VM46 colon carcinoma": {"test_system": "VM46 colon carcinoma", "procedure": "Dosing was initiated on Day 1. […] Taxotere was given i.v. at a dose of 70 mg/kg on a qd x 1 schedule."}, "[1]": {"test_system": "Panc-1 pancreatic carcinoma", "test": "In vivo evaluation against Panc-1 human pancreatic carcinoma (Example 17)"}, "[2]": {"conditions": "number of 5 mice, i.v. qd x 1 at estimated MTD (Taxol 24 mg/kg split), Day 91"}, "[3]": {"conditions": "number of mice, i.v. qd x 1 at estimated MTD (Taxol 24 mg/kg, Taxotere 70 mg/kg), 6 mice/group (Taxotere 7), Day 60"}, "[4]": {"conditions": "number of mice, i.v. qd x 1, mg/kg: Taxol 24, 0499 77, 0503 72.6, 0670 123.1, 0706 107.6, 0838 72.6, 0854 46.6, 0983 67.4, Taxotere 70, 6 mice/group, Day 64"}, "[5]": {"conditions": "Panc-1 (Example 17), i.v. qd x 1, six mice per group"}, "[6]": {"conditions": "number of mice, i.v. qd x 1, mg/kg: Taxol 36, 0499 77, 0503 72.6, 0670 123.1, 0706 107.6, 0838 72.6, 0854 76.9, 6 mice/group, Day 60"}}, "note": "Like-named read-outs stand apart in the source and are kept apart here.", "data": [{"smiles": "CCC(=O)O[C@H]1C(=O)[C@@]2(C)[C@H]([C@H](OC(=O)c3ccccc3)[C@]3(O)C[C@H](OC(=O)[C@H](O)[C@H](C=C(C)C)NC(=O)OC(C)(C)C)C(C)=C1C3(C)C)[C@]1(OC(C)=O)CO[C@@H]1C[C@@H]2O", "note": "[Compound 0499]", "values": [{"measurement": "IC50", "setting": "HCT116", "result": "< 1", "unit": "nM"}, {"measurement": "Mean Score", "setting": "DU145 prostate carcinoma; i.v. qd x 1 at estimated MTD (Taxol 24 mg/kg split), 5 mice/group, Day 91", "result": "4.4 ± 1.4"}, {"measurement": "MDS (n)", "setting": "DU145 prostate carcinoma; mean days of survival until tumor reached 1.5 g, i.v. qd x 1 at estimated MTD (Taxol 24 mg/kg as two split doses), 5 mice/group, study ended Day 91", "result": "67.2 ± 8.3 (3) days"}, {"measurement": "Stable Disease", "setting": "DU145 prostate carcinoma; number of 5 mice, tumor did not reach 1.5 g by end of study, i.v. qd x 1 at estimated MTD (Taxol 24 mg/kg split), Day 91", "result": 1}, {"measurement": "Toxic Deaths", "setting": "DU145 prostate carcinoma; number of 5 mice, i.v. qd x 1 at estimated MTD (Taxol 24 mg/kg as two split doses), Day 91", "result": 0}, {"measurement": "Complete Response", "setting": "DU145 prostate carcinoma; [2]", "result": 1}, {"measurement": "Partial Response", "setting": "DU145 prostate carcinoma; [2]", "result": 0}, {"measurement": "Survivors", "setting": "DU145 prostate carcinoma; [2]", "result": 2}, {"measurement": "Stable Disease", "setting": "A375 melanoma; A375, i.v. qd x 1, six mice per group", "result": "one"}, {"measurement": "MDS (n)", "setting": "A375 melanoma; mean days of survival until neoplasm reached 2.0 g, i.v. qd x 1 at estimated MTD (Taxol 24 mg/kg, Taxotere 70 mg/kg), 6 mice/group (Taxotere 7), terminated Day 60", "result": "30.5 ± 3.5 (3) days"}, {"measurement": "Toxic Deaths", "setting": "A375 melanoma; number of mice, i.v. qd x 1 at estimated MTD (Taxol 24 mg/kg, Taxotere 70 mg/kg), 6 mice/group (Taxotere 7)", "result": 2}, {"measurement": "Complete Response", "setting": "A375 melanoma; [3]", "result": 0}, {"measurement": "Partial Response", "setting": "A375 melanoma; [3]", "result": 0}, {"measurement": "Stable Disease", "setting": "A375 melanoma; [3]", "result": 1}, {"measurement": "Survivors", "setting": "A375 melanoma; [3]", "result": 1}, {"measurement": "Mean Score", "setting": "A375 melanoma; tumor scoring system, i.v. qd x 1 at estimated MTD (Taxol 24 mg/kg, Taxotere 70 mg/kg), 6 mice/group (Taxotere 7)", "result": "2.3 ± 0.9"}, {"measurement": "tolerability", "setting": "VM46 colon carcinoma; VM46, i.v. qd x 1", "result": "well-tolerated"}, {"measurement": "Toxic Deaths", "setting": "VM46 colon carcinoma; VM46, i.v. qd x 1, six mice per group", "result": "no toxic deaths"}, {"measurement": "Mean Score", "setting": "VM46 colon carcinoma; iv", "result": "2 ± 0.3"}, {"measurement": "MDS (n)", "setting": "VM46 colon carcinoma; iv, 1536 h", "result": "41.9 ± 4.2 (5) days"}, {"measurement": "Toxic Deaths", "setting": "VM46 colon carcinoma; number of mice, i.v. qd x 1, mg/kg: Taxol 24, 0499 77, 0503 72.6, 0670 123.1, 0706 107.6, 0838 72.6, 0854 46.6, 0983 67.4, Taxotere 70, 6 mice/group", "result": 0}, {"measurement": "Complete Response", "setting": "VM46 colon carcinoma; [4]", "result": 0}, {"measurement": "Partial Response", "setting": "VM46 colon carcinoma; [4]", "result": 0}, {"measurement": "Stable Disease", "setting": "VM46 colon carcinoma; [4]", "result": 1}, {"measurement": "Survivors", "setting": "VM46 colon carcinoma; [4]", "result": 1}, {"measurement": "MDS", "setting": "[1]; Panc-1 (Example 17), i.v. qd x 1 (compounds estimated MTD; Taxol 36 mg/kg split), days until tumor 1.5 g, ended Day 60", "result": "47 to 56", "unit": "days"}, {"measurement": "Partial Response", "setting": "[1]; [5]", "result": 1}, {"measurement": "Stable Disease", "setting": "[1]; [5]", "result": "one"}, {"measurement": "complete responses", "setting": "[1]; [5]", "result": 2}, {"measurement": "MDS (n)", "setting": "[1]; mean days of survival until neoplasm reached 1.5 g, i.v. qd x 1, mg/kg: Taxol 36, 0499 77, 0503 72.6, 0670 123.1, 0706 107.6, 0838 72.6, 0854 76.9, 6 mice/group, terminated Day 60", "result": "56.1 ± 1.0 (2) days"}, {"measurement": "Toxic Deaths", "setting": "[1]; number of mice, i.v. qd x 1, mg/kg: Taxol 36, 0499 77, 0503 72.6, 0670 123.1, 0706 107.6, 0838 72.6, 0854 76.9, 6 mice/group", "result": 0}, {"measurement": "Complete Response", "setting": "[1]; [6]", "result": 2}, {"measurement": "Partial Response", "setting": "[1]; [6]", "result": 1}, {"measurement": "Stable Disease", "setting": "[1]; [6]", "result": 1}, {"measurement": "Survivors", "setting": "[1]; [6]", "result": 4}, {"measurement": "Mean Score", "setting": "[1]; tumor scoring system, i.v. qd x 1, mg/kg: Taxol 36, 0499 77, 0503 72.6, 0670 123.1, 0706 107.6, 0838 72.6, 0854 76.9, 6 mice/group", "result": "7.4 ± 1.4"}]}]}
